Reference: PubChem BioAssay (NCI)
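Exposure lasted 48 hours, with cells grown in 96-well plates and compounds tested at five concentrations. At the GI50, growth is halved. Definition used: TGI = concentration required for complete inhibition of growth.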

Key:
Experiment in all cases: NCI-60 cell line screen, 48 h
NCI-H226 lung = system: NCI-H226 lung
SNB-75 CNS = system: SNB-75 CNS
DU-145 prostate = system: DU-145 prostate
HOP-92 NSCLC = system: HOP-92 NSCLC
TK-10 renal = system: TK-10 renal
CAKI-1 renal = system: CAKI-1 renal
EKVX NSCLC = system: EKVX NSCLC
HS 578T breast = system: HS 578T breast

Row | Compound | GI50 (NCI-H226 lung) [µM] | TGI (NCI-H226 lung) [µM] | GI50 (SNB-75 CNS) [µM] | TGI (SNB-75 CNS) [µM] | GI50 (DU-145 prostate) [µM] | TGI (DU-145 prostate) [µM] | GI50 (HOP-92 NSCLC) [µM] | TGI (HOP-92 NSCLC) [µM] | GI50 (TK-10 renal) [µM] | TGI (TK-10 renal) [µM] | GI50 (CAKI-1 renal) [µM] | TGI (CAKI-1 renal) [µM] | GI50 (EKVX NSCLC) [µM] | TGI (EKVX NSCLC) [µM] | GI50 (HS 578T breast) [µM] | TGI (HS 578T breast) [µM]
1 | CN(C)c1cc(NN=C(c2ccc(O)cc2)c2ccc(O)cc2)c([N+](=O)[O-])cc1[N+](=O)[O-] | 13.1 | 32.3 | 10.4 | 25 | 10.2 | 23.6 | 10.2 | 25.4 | 7.35 | 22 | 6.76 | 20.2 | 5.49 | 18.1 | – | –
2 | CC(C)[C@@H]1C=C2CC[C@H]3[C@](C)(CN)CCC[C@]3(C)[C@H]2CC1 | 15.2 | 34.4 | 14.8 | 28.8 | 2.05 | 4.08 | 3.3 | 17.6 | 12 | 25.3 | 1.85 | 4.66 | 7.32 | 23.4 | 4.69 | 20.1
3 | O=S(=O)(c1ccccc1)N1CCN(S(=O)(=O)c2ccccc2)c2ccccc21 | – | > 100 | – | > 100 | – | > 100 | – | > 100 | – | > 100 | – | > 100 | – | 80.1 | – | > 100
4 | COc1ccc(CCN=C2NC(=O)/C(=C/c3ccc4ncccc4c3)S2)cc1 | > 25 | > 25 | > 25 | > 25 | > 25 | > 25 | > 11.3 | > 25 | > 25 | > 25 | > 21.2 | > 25 | – | – | > 25 | > 25
5 | O=C1CN(c2cccc(Cl)c2)C(=O)CN1CCN1CC(=O)N(c2cccc(Cl)c2)CC1=O | – | – | – | > 100 | – | > 100 | – | > 100 | – | > 100 | – | > 100 | – | > 100 | – | > 100
6 | O=C1CCCCN1c1ccccc1C#C/C=C\C#Cc1ccccc1C(F)(F)F | 1.28 | 3.7 | 1.61 | 11.4 | 1.68 | 8.5 | 10.7 | 43.1 | 3.35 | 30.8 | 1.68 | 9.83 | 4.08 | > 50 | 3.75 | > 50
7 | O=C(O)c1nc2nc(Cl)c(Cl)nc2[nH]1 | – | > 100 | – | > 100 | – | > 100 | – | > 100 | – | > 100 | – | > 100 | – | > 100 | – | > 100
8 | CCN(C(=O)N1CCN(c2cc3c(cc2F)c(=O)c(C(=O)O)cn3C2CC2)CC1)c1nc(-c2ccc(Cl)cc2)cs1 | 1.79 | 5.2 | 1.37 | 9.32 | 1.83 | > 100 | 0.825 | 4.8 | 2.89 | > 51.9 | 2.17 | 11.4 | 2.54 | > 100 | 1.26 | 13
9 | O=C(/C(=C/c1ccc([N+](=O)[O-])cc1)SCc1ccccc1)c1ccc(Cl)cc1 | 4.53 | 34.1 | 16 | 35.7 | 3.6 | 13.8 | 2.28 | 9.46 | 5.11 | 18.1 | – | – | 6.77 | 20.2 | 2.4 | 8.2
10 | CCn1c(-c2nonc2N)nc2c(C#CC(C)(C)O)nc(OC[C@@H](N)c3ccccc3)cc21 | 11.9 | 16.2 | 2.45 | 5.66 | 4.45 | 8.85 | – | – | 5.09 | 11.3 | 6.53 | 14.1 | 10.4 | 22.4 | 4.56 | 10.7
11 | COc1cc(C2CC(C)(O)Oc3cc4c(cc32)OCO4)cc(OC)c1OC (stereo unspecified) | – | – | – | – | – | > 100 | – | > 100 | – | > 100 | – | > 100 | – | > 100 | – | 0.696
12 | Cc1nnc(NC(=O)c2nc(S(=O)(=O)Cc3ccc(F)cc3)ncc2Cl)s1 | 6.27 | 25.7 | 3.25 | 17.6 | 9.44 | 21.7 | 1.66 | 3.22 | – | – | 1.78 | 3.24 | 6.73 | 24.3 | 12.7 | 50.8
13 | Nc1ccccc1SC(CC(=O)c1ccccc1)c1cccc([N+](=O)[O-])c1 (stereo unspecified) | 17.1 | 35.2 | 13.6 | 26.7 | 14.7 | 28 | – | – | 20.7 | 35.1 | 16.4 | 30.4 | – | – | 21.5 | 57.3
14 | Nc1cc(NN=C(c2ccc(O)cc2)c2ccc(O)cc2)c([N+](=O)[O-])cc1[N+](=O)[O-] | – | – | 1.45 | 3.92 | 1.64 | 2.99 | 2.18 | 8.2 | 2.22 | 6.98 | 1.88 | 5.24 | 2.42 | 7.45 | – | –
15 | COc1ccc(C2[C@@H](c3ccccc3)C(=O)N2c2cc(OC)c(OC)c(OC)c2)cc1F (stereo partly specified) | 0.035 | > 100 | 0.0314 | > 100 | 0.0354 | > 100 | 2.84 | > 100 | 1.68 | > 100 | 0.0332 | > 100 | 0.0776 | > 100 | 0.0434 | 78.7
16 | CC1(C)OC1COc1c2occc2cc2ccc(=O)oc12 (stereo unspecified) | – | > 100 | – | > 100 | – | > 100 | – | > 100 | – | – | – | > 100 | – | > 100 | – | > 100
17 | Cc1cc(I)cc(CN(CCCN(C)C)C(C)C)c1O | 25.7 | > 100 | 16.6 | 36.3 | 16.1 | 29.6 | 5.77 | 31.9 | 18.2 | 33.1 | 16.5 | 33.6 | 18.3 | 42.9 | 18.1 | 35.6
18 | COc1cccc(-c2nc(-c3ccc(NC(=O)OC(C)C)cc3)[nH]c2-c2ccnc(Br)c2)c1 | 2.46 | 87.5 | 0.567 | > 100 | 3.33 | > 100 | 3.19 | 8.29 | 3.61 | > 100 | 2.49 | > 100 | 2.45 | 10.3 | 0.308 | 1.69
